In this assay the target is T1, human neutrophil elastase (Homo sapiens, UniProt P08246).
T1 construct: purchased Elastin Products Company
T1 sequence (P08246 30-267): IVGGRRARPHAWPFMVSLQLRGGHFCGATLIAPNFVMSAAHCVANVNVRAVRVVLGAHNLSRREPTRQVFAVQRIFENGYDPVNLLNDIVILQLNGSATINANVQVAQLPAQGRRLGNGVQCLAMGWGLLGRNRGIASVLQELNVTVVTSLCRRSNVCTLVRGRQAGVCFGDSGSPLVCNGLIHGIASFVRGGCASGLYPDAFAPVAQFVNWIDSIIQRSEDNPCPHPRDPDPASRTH
Description: Inhibitory action against human neutrophil elastase (Test Example 1; fluorogenic substrate MeOSuc-AAPV-AMC, buffer with 2M NaCl, 0.002% Brij-35). In kind it is biochemical. The conditions noted are these: 37° C., read-out: IC50 value (compound concentration required for 50% inhibition of human neutrophil elastase). As to the method: Assay buffer (0.4 unit/ml HNE (human neutrophil elastase, available from Elastin Products Company), 200 mM HEPES [N-(2-hydroxyethyl)piperazine-N′-(2-ethanesulfonic acid)], pH 7.5, 2M NaCl, 0.002% Brij-35) 100 μl, water for injection 40 μl and DMSO (dimethyl sulfoxide) solution of the present compound 20 μl were mixed in a 96 well plate and the mixed solutions were pre-incubated at 37° C. for five minutes. After pre-incubation, MeOSuc-AAPV-AMC (methoxysuccinyl-alanyl-alanyl-prolyl-valyl-aminomethyl cumaride (available from Sigma Aldrich Co.) solution as fluorogenic substrate (which was dissolved in 10% DMSO solution so as to adjust to 0.5 mM) 40 μl was added to the above-prepared mixed solution so as to initiate the reaction, and the mixture was incubated at 37° C. for five minutes. The fluorescence intensity of AMC was measured at an excitation wavelength of 380 nm and a fluorescence wavelength of 460 nm and the inhibition ratio was determined.

For `COc1ccc(-n2nccc2-c2c(C)n(-c3cccc(C(F)(F)F)c3)c(=O)n(C)c2=O)cc1` [Example 40, 5-(1-(4-methoxyphenyl)-1H-pyrazol-5-yl)-3,6-dimethyl-1-(3-(trifluoromethyl)phenyl)pyrimidin-2,4(1H,3H)-dione], the IC50 is 8.34 µM.

As for `CCCn1c(=O)c(-c2ccnn2-c2ccc(C#N)cc2)c(N)n(-c2cccc([N+](=O)[O-])c2)c1=O` [Example 57, 4-[5-[6-Amino-1-(3-nitrophenyl)-2,4-dioxo-3-propyl-1,2,3,4-tetrahydropyrimidin-5-yl]-1H-pyrazol-1-yl]benzonitrile], the IC50 was determined as 0.159 µM.

`Cn1c(=O)c(-c2ccnn2-c2ccc(C#N)cc2)c(N)n(-c2cccc(C(F)(F)F)c2)c1=O` [Example 58, 4-[5-[6-Amino-3-methyl-2,4-dioxo-1-(3-trifluoromethylphenyl)-1,2,3,4-tetrahydropyrimidin-5-yl]-1H-pyrazol-1-yl]benzonitrile]: the IC50 is 0.552 µM. With `Cc1c(-c2cccnc2-c2ccc(C#N)cc2)c(=O)n(C)c(=O)n1-c1cccc(C(F)(F)F)c1` [Example 61, 4-[3-[3,6-dimethyl-2,4-dioxo-1-(3-trifluoromethylphenyl)-1,2,3,4-tetrahydropyrimidin-5-yl]-pyridin-2-yl]benzonitrile], the IC50 worked out at 0.074 µM. The value for `CCCn1c(=O)c(-n2cnnc2-c2ccc(C#N)cc2)c(C)n(-c2cccc(C(F)(F)F)c2)c1=O` [Example 62, 4-[4-[6-Methyl-2,4-dioxo-3-propyl-1-(3-trifluoromethylphenyl)-1,2,3,4-tetrahydropyrimidin-5-yl]-4H-1,2,4-triazol-3-yl]benzonitrile] was 0.068 µM. `Cc1c(-c2ccnn2-c2ccc(C#N)cc2)c(=O)n(CC=O)c(=O)n1-c1cccc(C(F)(F)F)c1` [Example 68]: the IC50 was determined as 0.111 µM. `Cc1c(-c2ccnn2-c2ccc(C#N)cc2)c(=O)n(CCN(C)C)c(=O)n1-c1cccc(C(F)(F)F)c1` [Example 69, 4-[5-[3-(2-Dimethylaminoethyl)-6-methyl-2,4-dioxo-1-(3-trifluoromethylphenyl)-1,2,3,4-tetrahydropyrimidin-5-yl]-1H-pyrazol-1-yl]benzonitrile]: the IC50 is 0.114 µM.

On to `CNCCn1c(=O)c(-c2ccnn2-c2ccc(C#N)cc2)c(C)n(-c2cccc(C(F)(F)F)c2)c1=O` [Example 70, 4-[5-[6-Methyl-3-(2-methylaminoethyl)-2,4-dioxo-1-(3-trifluoromethylphenyl)-1,2,3,4-tetrahydropyrimidin-5-yl]-1H-pyrazol-1-yl]benzonitrile], for which the IC50 was 0.043 µM. The value for `CC(=O)NCCn1c(=O)c(-c2ccnn2-c2ccc(C#N)cc2)c(C)n(-c2cccc(C(F)(F)F)c2)c1=O` [Example 71, N-[2-[5-[1-(4-Cyanophenyl)-1H-pyrazol-5-yl]-4-methyl-2,6-dioxo-3-(3-trifluoromethylphenyl)-2,3-dihydropyrimidin-1(6H)-yl]ethyl]acetamide] was 0.169 µM; that for `Cc1c(-c2ccnn2-c2ccc(C#N)cc2)c(=O)n(CC(=O)O)c(=O)n1-c1cccc(C(F)(F)F)c1` [Example 72, 2-[5-[1-(4-Cyanophenyl)-1H-pyrazole-5-yl]-4-methyl-2,6-dioxo-3-(3-trifluoromethylphenyl)-2,3-dihydropyrimidin-1(6H)-yl]acetic acid] was 0.138 µM. The value for `Cc1c(-c2ccnn2-c2ccc(C#N)cc2)c(=O)n(CCC(=O)O)c(=O)n1-c1cccc(C(F)(F)F)c1` [Example 73, 3-[5-[1-(4-Cyanophenyl)-1H-pyrazol-5-yl]-4-methyl-2,6-dioxo-3-(3-trifluoromethylphenyl)-2,3-dihydropyrimidin-1(6H)-yl]propanoic acid] was 0.535 µM; that for `Cc1c(-c2ccnn2-c2ccc(C#N)cc2)c(=O)n(CCCC(=O)O)c(=O)n1-c1cccc(C(F)(F)F)c1` [Example 74, 4-[5-[1-(4-Cyanophenyl)-1H-pyrazol-5-yl]-4-methyl-2,6-dioxo-3-(3-trifluoromethylphenyl)-2,3-dihydropyrimidin-1(6H)-yl]butanoic acid] was 0.312 µM.

(Values after patent US9040516B2, “Uracil derivative and use thereof for medical purposes” (SUMITOMO DAINIPPON PHARMA CO., LTD., priority 2011, dated 2015).)
